The text below walks through data of PMC2697320, “Identification of the high affinity binding site in the Streptococcus intermedius toxin intermedilysin for its membrane receptor, the human complement regulator CD59” (Molecular Immunology, 2009).

Where no end group is shown, it is not given here.

For data set [1], the system named is human erythrocytes. Briefly: Hemolytic assay for complement (C) activity, antibody-sensitised human erythrocytes. It is filed as cell-based. The conditions noted are these: at the dilutions used in these assays. The protocol:
Hemolytic assays for C activity were performed using human erythrocytes sensitised with an in-house rabbit polyclonal antiserum against human CD55 as described ([Cole et al., 2006]). Sensitised erythrocytes (2% in CFD; 50 μl/well) were incubated for 30 min with various dilutions of human serum in CFD in the absence or presence of test peptides or blocking anti-CD59 antibodies. Plates were centrifuged and percent lysis calculated as above. Statistical analyses were carried out using unpaired Student's t-tests.

For data set [2], the target named is T1, CD59 (Homo sapiens, UniProt P13987).
T1 construct: Recombinant soluble CD59 comprising amino acids 1–76 with an 11 amino acid Ser/Gly linker; made in house
T1 sequence (P13987 26-101): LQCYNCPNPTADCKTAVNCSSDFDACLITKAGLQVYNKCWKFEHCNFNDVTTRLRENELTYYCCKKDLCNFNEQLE
Briefly: biochemical. It is filed as binding. The conditions noted are these: SPR steady state, immobilised CD59, 25 °C; read-out: KD, printed in Fig. 3C.
Experimental: All surface plasmon resonance (SPR) analyses were carried out on a Biacore T100 (Biacore International SA, Stevenage, UK). Proteins were coupled to the sensor chip surface using thiol-based coupling chemistry. Briefly, recombinant CD59 was subjected to mild reduction for 16 h at 20 °C using TCEP at a molar ratio TCEP:CD59 of 3:1 [120 μm:40 μM] to reduce the terminal Cys residue while leaving internal disulphide bonds intact. An S-series CM5 carboxy-dextran coated chip was then activated using NHS/EDC (N-hydroxysuccinimide/1-ethyl-3(3-dimethyl aminopropyl)-carbodiimide hydrochloride) according to the manufacturer's protocol. The activated surface was further modified by flowing 80 mM 2-(2-pyridinyldithio)-ethaneamine hydrochloride (PDEA) in 0.1 M sodium borate (pH 8.5) to introduce reactive disulphide groups into the matrix. Reduced CD59 was flowed over this surface at pH 3.4 (10 mM NaCitrate) and coupling through the free amino-terminal thiol in the reduced CD59 monitored in real time. Blocking of residual activated residues was achieved by flowing 50 mM L-cysteine in 100 mM NaAcetate pH 4 containing 1 M NaCl. […] For all kinetic analyses, data were collected at 25 °C at a flow rate of 30 μl/min. […] Interactions were analysed in HBS containing 0.05% surfactant P20 and 3 mM EDTA. Data were evaluated using Biacore T100 Evaluation software.

As a reminder, the Kd is a measure of binding affinity in units of concentration. Take GLAWEPWRLIYSKNDLPLVPC [ILY peptide]: the “lysis by peptide itself above background” value in data set [1] was “neither “sense” nor jumbled peptide caused any lysis above background”. Also, the Kd in data set [2] came out at 4.92 µM.
